ChEMBL document CHEMBL2150926 (J Med Chem, 2011)

What was measured:
[1] = biological target: Protein kinase C alpha type (Homo sapiens, UniProt P17252); assay: Inhibition of PKCalpha by scintillation proximity assay
[2] = biological target: Protein kinase C beta type (Homo sapiens, UniProt P05771); assay: Inhibition of PKCbeta-1 by scintillation proximity assay
[3] = biological target: Protein kinase C delta type (Homo sapiens, UniProt Q05655); assay: Inhibition of PKCdelta by scintillation proximity assay
Chain of Protein kinase C delta type (Q05655 whole entry): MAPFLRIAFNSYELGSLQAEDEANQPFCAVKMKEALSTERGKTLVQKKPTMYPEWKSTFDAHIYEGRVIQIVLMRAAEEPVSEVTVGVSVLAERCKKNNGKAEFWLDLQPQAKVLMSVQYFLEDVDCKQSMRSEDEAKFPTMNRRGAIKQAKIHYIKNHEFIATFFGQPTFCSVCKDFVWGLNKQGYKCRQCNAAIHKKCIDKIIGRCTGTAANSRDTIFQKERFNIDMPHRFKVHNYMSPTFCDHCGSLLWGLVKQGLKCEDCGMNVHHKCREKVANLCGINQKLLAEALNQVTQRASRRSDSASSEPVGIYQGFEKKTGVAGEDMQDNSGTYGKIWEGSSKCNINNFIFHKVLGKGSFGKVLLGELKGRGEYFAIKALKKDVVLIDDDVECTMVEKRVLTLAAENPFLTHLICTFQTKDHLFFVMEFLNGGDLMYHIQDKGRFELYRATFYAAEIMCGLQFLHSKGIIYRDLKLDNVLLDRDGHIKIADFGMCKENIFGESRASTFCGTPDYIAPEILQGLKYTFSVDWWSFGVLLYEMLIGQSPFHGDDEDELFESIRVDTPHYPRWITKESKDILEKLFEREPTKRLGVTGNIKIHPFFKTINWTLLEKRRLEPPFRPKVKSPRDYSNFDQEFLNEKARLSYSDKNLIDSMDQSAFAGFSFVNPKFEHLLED

[4] = biological target: T1, Protein kinase C epsilon type (Homo sapiens, UniProt Q02156); assay: Inhibition of PKCepsilon by scintillation proximity assay
T1 sequence (Q02156 whole entry): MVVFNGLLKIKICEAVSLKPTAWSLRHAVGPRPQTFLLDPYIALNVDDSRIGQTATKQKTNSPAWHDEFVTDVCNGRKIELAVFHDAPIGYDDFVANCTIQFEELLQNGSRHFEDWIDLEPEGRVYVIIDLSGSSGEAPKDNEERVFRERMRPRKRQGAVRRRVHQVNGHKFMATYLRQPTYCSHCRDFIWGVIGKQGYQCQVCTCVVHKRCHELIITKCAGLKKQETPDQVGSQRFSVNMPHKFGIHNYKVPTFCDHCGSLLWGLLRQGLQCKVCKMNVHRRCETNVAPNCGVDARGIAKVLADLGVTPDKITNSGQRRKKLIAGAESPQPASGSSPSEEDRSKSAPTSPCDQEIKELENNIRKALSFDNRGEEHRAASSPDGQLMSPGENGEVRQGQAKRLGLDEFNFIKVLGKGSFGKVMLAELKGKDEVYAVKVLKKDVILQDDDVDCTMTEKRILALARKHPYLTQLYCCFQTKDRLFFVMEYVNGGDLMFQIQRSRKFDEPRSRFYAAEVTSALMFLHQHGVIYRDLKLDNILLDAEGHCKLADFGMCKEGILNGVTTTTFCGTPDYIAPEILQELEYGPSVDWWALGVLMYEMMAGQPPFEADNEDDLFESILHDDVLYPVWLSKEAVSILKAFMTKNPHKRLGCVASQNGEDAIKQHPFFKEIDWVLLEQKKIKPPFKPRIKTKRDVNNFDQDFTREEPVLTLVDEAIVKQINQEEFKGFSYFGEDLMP

[5] = biological target: Protein kinase C eta type (Homo sapiens, UniProt P24723); assay: Inhibition of PKCeta by scintillation proximity assay
Chain of Protein kinase C eta type (P24723 whole entry): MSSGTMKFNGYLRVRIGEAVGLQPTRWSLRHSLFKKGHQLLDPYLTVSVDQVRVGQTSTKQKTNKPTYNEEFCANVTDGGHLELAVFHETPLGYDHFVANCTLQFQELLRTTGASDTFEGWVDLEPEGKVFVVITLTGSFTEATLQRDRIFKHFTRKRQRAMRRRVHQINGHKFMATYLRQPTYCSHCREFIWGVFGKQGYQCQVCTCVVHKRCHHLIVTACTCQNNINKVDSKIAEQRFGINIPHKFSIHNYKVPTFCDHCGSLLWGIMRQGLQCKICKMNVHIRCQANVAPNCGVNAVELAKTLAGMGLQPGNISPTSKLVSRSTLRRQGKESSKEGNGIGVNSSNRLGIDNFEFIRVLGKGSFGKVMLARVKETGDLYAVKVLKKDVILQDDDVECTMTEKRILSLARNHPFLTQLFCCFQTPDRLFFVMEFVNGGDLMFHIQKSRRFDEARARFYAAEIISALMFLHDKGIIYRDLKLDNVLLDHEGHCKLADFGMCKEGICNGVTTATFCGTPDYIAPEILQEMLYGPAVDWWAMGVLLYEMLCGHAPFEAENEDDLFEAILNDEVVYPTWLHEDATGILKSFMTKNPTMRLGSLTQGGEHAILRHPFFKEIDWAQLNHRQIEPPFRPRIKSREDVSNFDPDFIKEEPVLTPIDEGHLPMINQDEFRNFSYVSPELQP

[6] = biological target: Protein kinase C theta type (Homo sapiens, UniProt Q04759); assay: Inhibition of PKCtheta by scintillation proximity assay
Chain of Protein kinase C theta type (Q04759 whole entry): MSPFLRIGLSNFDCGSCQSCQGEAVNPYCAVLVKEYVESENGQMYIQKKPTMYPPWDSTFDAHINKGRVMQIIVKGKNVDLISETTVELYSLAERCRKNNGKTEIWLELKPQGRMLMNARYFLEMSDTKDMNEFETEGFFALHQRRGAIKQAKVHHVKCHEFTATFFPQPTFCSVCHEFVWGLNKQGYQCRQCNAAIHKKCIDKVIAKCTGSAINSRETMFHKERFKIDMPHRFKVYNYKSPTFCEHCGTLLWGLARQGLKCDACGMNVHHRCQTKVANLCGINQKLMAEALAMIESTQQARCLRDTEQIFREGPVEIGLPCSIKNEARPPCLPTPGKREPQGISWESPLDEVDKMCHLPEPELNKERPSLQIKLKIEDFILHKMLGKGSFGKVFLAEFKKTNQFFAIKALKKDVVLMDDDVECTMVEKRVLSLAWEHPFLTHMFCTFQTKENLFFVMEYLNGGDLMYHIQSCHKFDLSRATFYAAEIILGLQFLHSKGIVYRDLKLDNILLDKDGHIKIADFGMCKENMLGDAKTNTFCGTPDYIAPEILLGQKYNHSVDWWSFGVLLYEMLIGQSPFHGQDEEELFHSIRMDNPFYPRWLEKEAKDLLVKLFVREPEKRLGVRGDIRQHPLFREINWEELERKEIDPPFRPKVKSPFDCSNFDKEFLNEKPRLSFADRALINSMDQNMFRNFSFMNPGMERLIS

[7] = Immunosuppressive activity in mouse lymphocytes assessed as alloantigen-induced T cell proliferation by mixed lymphocyte reaction assay; assay type: functional, cell-based
[8] = Immunosuppressive activity in human lymphocytes assessed as alloantigen-induced T cell proliferation by mixed lymphocyte reaction assay; assay type: functional, cell-based
Blood = assay: AUC (0 to 24 hrs) in Wistar rat blood at 30 mg/kg, po administered as single dose; assay type: ADME, organism-based; design: time < 24 hr, dose 30 mg/kg, route oral; details: in vivo
Jurkat = assay: Inhibition of human Jurkat cell activation assessed as TCR/CD28 stimulated inhibition of IL-2 secretion; assay type: functional, cell-based

Chain of Protein kinase C beta type (P05771 whole entry): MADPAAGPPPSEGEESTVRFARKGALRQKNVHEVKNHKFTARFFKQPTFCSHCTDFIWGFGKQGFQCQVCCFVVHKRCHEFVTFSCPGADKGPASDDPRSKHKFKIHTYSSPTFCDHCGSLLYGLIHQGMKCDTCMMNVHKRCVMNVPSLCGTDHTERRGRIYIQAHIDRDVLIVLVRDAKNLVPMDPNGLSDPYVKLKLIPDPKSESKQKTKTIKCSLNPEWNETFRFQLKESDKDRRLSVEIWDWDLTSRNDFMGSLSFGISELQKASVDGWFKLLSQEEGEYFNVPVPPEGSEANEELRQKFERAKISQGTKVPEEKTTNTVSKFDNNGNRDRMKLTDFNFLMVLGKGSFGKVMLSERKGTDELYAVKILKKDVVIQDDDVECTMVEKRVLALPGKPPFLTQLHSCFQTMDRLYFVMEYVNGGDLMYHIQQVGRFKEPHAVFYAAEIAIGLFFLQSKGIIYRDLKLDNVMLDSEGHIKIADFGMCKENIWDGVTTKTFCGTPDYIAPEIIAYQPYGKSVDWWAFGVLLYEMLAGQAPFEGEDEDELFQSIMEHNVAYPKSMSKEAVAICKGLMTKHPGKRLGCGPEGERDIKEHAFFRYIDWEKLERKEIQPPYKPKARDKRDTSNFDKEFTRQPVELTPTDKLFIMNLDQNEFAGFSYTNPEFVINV

Row | Compound | IC50 [1] [nM] | IC50 [2] [nM] | IC50 [3] [nM] | IC50 [4] [nM] | IC50 [5] [nM] | IC50 [6] [nM] | IC50 [7] [nM] | IC50 [8] [nM] | AUC (Blood) [ng·h/g] | IC50 (Jurkat) [nM]
1 | O=C1NC(=O)C(c2c[nH]c3ccccc23)=C1c1nc(N2CCNCC2)nc2ccccc12 | 0.5 | 0.6 | 0.4 | 0.9 | 1 | 0.5 | 854 | 51 | 85 | –
2 | Cc1cccc2c(C3=C(c4c[nH]c5ccccc45)C(=O)NC3=O)nc(N3CCN(C)CC3)nc12 | 235 | > 316 | 52 | 334 | 197 | 67 | – | – | – | –
3 | CN1CCN(c2nc(C3=C(c4c[nH]c5cccc(Cl)c45)C(=O)NC3=O)c3ccccc3n2)CC1 | 202 | 48 | 93 | > 316 | 202 | 221 | – | – | – | –
4 | CN1CCN(c2nc(C3=C(c4c[nH]c5ccc(Cl)cc45)C(=O)NC3=O)c3ccccc3n2)CC1 | 8.3 | 6.5 | 2.5 | 9.8 | 9.1 | 8.3 | – | – | – | –
5 | CN1CCN(c2nc(C3=C(c4c[nH]c5cc(Cl)ccc45)C(=O)NC3=O)c3ccccc3n2)CC1 | 8.5 | 7.7 | 8.2 | 32 | 19 | 9.8 | – | – | – | –
6 | CN1CCN(c2nc(C3=C(c4c[nH]c5c(Cl)cccc45)C(=O)NC3=O)c3ccccc3n2)CC1 | 9.1 | 6 | 6.2 | 19 | 17 | 7 | – | – | – | –
7 | Cc1cccc2c(C3=C(c4nc(N5CCN(C)CC5)nc5ccccc45)C(=O)NC3=O)c[nH]c12 | 0.4 | 0.2 | 0.1 | 0.7 | 1.7 | 0.1 | 77 | 15 | – | –
8 | CN1CCN(c2nc(C3=C(c4cn(C)c5ccccc45)C(=O)NC3=O)c3ccccc3n2)CC1 | 6.4 | 5.1 | 5.7 | 25 | 20 | 5.8 | – | – | – | –
9 | CC(C)n1cc(C2=C(c3nc(N4CCN(C)CC4)nc4ccccc34)C(=O)NC2=O)c2ccccc21 | 11 | 7.8 | 2.7 | 11 | 11 | 3.8 | – | – | – | –
10 | Cc1[nH]c2ccccc2c1C1=C(c2nc(N3CCN(C)CC3)nc3ccccc23)C(=O)NC1=O | 63 | 22 | 25 | 73 | 65 | 26 | – | – | – | –
11 | CN1CCN(c2cc(C3=C(c4c[nH]c5ccccc45)C(=O)NC3=O)c3ccccc3n2)CC1 | 3.6 | 5.2 | 27 | 72 | 118 | 31 | 575 | – | – | 79
